Results: patent US20080292673A1, “Bioactive agrichemical compositions and use therreof” (priority 2007, published 2008)
Like-named read-outs stand apart in the source and are kept apart here.

Tests used:
[1] = tested on: Saccharomycetes Cerevisiae (Fleishmann's Bakers yeast); assay: Saccharomycetes Cerevisiae yeast growth suppression, turbidity of broth suspension; assay type: cell-based; conditions: for T18 − T0 (change in turbidity) / T48 − T0 (change in turbidity) / T72 − T0 (change in turbidity) / T96 − T0 (change in turbidity) / T18 (turbidity of yeast suspension) / T48 (turbidity of yeast suspension) / T72 (turbidity of yeast suspension) / T96 (turbidity of yeast suspension) / T0 (turbidity of yeast suspension): surfactant ~0.05 wt %; for T0 (turbidity of yeast suspension): time 0; for Turbidity (NTU) OD (To) / Turbidity (NTU) OD (T1 hr) / Turbidity (NTU) OD (T18) / Turbidity (NTU) OD (T24) / Turbidity (NTU) OD (T48): Table 3; for Turbidity (NTU) OD (To): 1 ml solutions added; for Turbidity (NTU) OD (T1 hr): 1 hour; for Turbidity (NTU) OD (T48): 48 hours; for Change in Turbidity from T0 (delta NTU) OD (T1 hr) / Change in Turbidity from T0 (delta NTU) OD (T18) / Change in Turbidity from T0 (delta NTU) OD (T24) / Change in Turbidity from T0 (delta NTU) OD (T48): Table 3A; for Change in Turbidity from T0 (delta NTU) OD (T48): 48 hours minus time zero
Method: Saccharomycetes Cerevisiae was selected as a test organism as it is generally accepted in the industry as an indicator or surrogate organism for a wide variety of fungi. In each of these experiments, the same general procedure was followed unless otherwise indicated.
Experimental Detail: A growth medium was prepared by adding 10 grams of nutrient medium (Difco Sabouraud dextrose broth from BD of Franklin Lakes, N.J., USA) to 300 ml of distilled water. Fleishmann's Bakers yeast was then added to the growth medium while mixing using a magnetic stirrer until a uniform dispersion was obtained having an initial turbidity of between about 50 and 100 NTU as measured using a HF Instruments DRT 100B Turbidity Meter. Once the appropriate dispersion was obtained, 20 ml aliquots were then dispensed, with continued mixing, into 40 ml borosilicate glass vials with Teflon lined caps (VWR International Cat. No. 15900-004). The system/component to be evaluated was then added to the vial and intimately shaken to ensure a good, substantially homogeneous mixture. The turbidity of each mixture was then determined and the vial transferred to an incubator at 30° C. Each vial was periodically removed from the incubator and the mixture in the vials assessed for turbidity: the specific timing for such evaluation was as set forth in the discussion of the experiments and the accompanying tables.
In each experiment, unless otherwise specified, a 2 ml aqueous solution containing the specified bioactive system or component thereof was added to the 20 ml yeast suspension and mixed thoroughly. Typically the surfactants were added separately in a concentrated solution in water; however, the volume added was negligible: a fraction of an ml. For convenience in understanding efficacy levels, the amounts or concentrations of the various components presented in each of the following tables and experiments are of the diluted material in the test vial: not of the concentrate added to the test vial. Furthermore, the concentrations presented are on the basis of a 20 ml total volume, not the actual 22+ ml volume. Multiplying each of the listed concentrations by 0.9 (or 0.95 with those compositions using 1 ml aqueous solutions) will provide a more accurate assessment of the concentrations of the various components evaluated, i.e., a 5 ppm silver concentration is actually closer to 4.5 ppm. Finally, for those vials to which no bioactive system or component thereof was added (the controls) or which only contained the surfactants, 2 ml of additional growth medium was added to ensure relative equivalent dilutions of the yeast.
In the tables below, the results are presented as the actual turbidity readings (NTU) with a sub-table presenting the change or delta in NTU values. Given the nature of the system, changes in turbidity are reflective of the relative performance/bioefficacy of the bioactive systems and their components.

[2] = tested on: E. amylovora 153N; assay: Fire blight on crabapples (Example 287); assay type: in vivo, Snow Drift crabapple trees; conditions: for shoot blight incidence, in words: evaluated on day 63; for canker, in words: length of cankers evaluated on day 63
Method: A study of the bioefficacy of the various agrichemical compositions, including bioactive acid solutions and blends thereof with an antibiotic agrichemical, were evaluated to assess their bioefficacy against fire blight on crabapples. The study was conducted on 5 year old Snow Drift crabapple trees, with each of the compositions being applied to ten trees in two-subplots of five trees, four different times: at 100% bloom-day 1, a second application was made on day 4, a third on day 11 and a final treatment on day 19. The trees were inoculated with E. amylovora […] at a concentration of 4×10^6 cells per milliliter on day 1, following drying of the treatment, with the inoculation being repeated on day 13. Evaluation for fire blight was completed on 100 blossoms for each of the subplots on day 12, day 19 and day 27. Additionally, the incidence of shoot infection and the length of […] evaluated on day 63. The test compositions were prepared by forming solutions of the bioactive agents. Two different dilutions of the MI2 bioactive were evaluated; the first employing 94.46 ml/gallon (25 ml/l) of water (5 ppm of each metal) and the second 188.9 ml/gallon (50 ml/l) of water (10 ppm of each metal). […] Finally, copper hydroxide was diluted at a rate of 1 lb/gallon (119.8 g/l). Each of the compositions and blends were spray applied at a rate of 50 gallons (189.3 l) pre acre. The results are presented as the mean of the counts.

[3] = Metal ppm 2.5, about 0.2% citric acid
[4] = Metal ppm 2.5 each of copper, silver, zinc, about 0.2% citric acid
[5] = Metal ppm 5, approximately 0.4% citric acid
[6] = Metal ppm 5 each of copper, silver, zinc, approximately 0.4% citric acid
[7] = 1 hour minus time zero, sulfate
[8] = 18 hours minus time zero, sulfate
[9] = 24 hours minus time zero, sulfate

CCCCCCCCCCCCOS(=O)(=O)[O-].[Na+]
T18 − T0 (change in turbidity) ([1]; neat, Metal ppm 0): 447
T48 − T0 (change in turbidity) ([1]; neat, Metal ppm 0): 610
T72 − T0 (change in turbidity) ([1]; neat, Metal ppm 0): 594
T96 − T0 (change in turbidity) ([1]; neat, Metal ppm 0): 591
T18 (turbidity of yeast suspension) ([1]; neat, Metal ppm 0): 495
T48 (turbidity of yeast suspension) ([1]; neat, Metal ppm 0): 658
T72 (turbidity of yeast suspension) ([1]; neat, Metal ppm 0): 642
T96 (turbidity of yeast suspension) ([1]; neat, Metal ppm 0): 639
T0 (turbidity of yeast suspension) ([1]; neat, Metal ppm 0): 48
T18 − T0 (change in turbidity) [1, 3]: 2
T48 − T0 (change in turbidity) [1, 3]: 0
T72 − T0 (change in turbidity) [1, 3]: 0
T96 − T0 (change in turbidity) [1, 3]: −1
T18 (turbidity of yeast suspension) [1, 4]: 90
T48 (turbidity of yeast suspension) [1, 4]: 88
T72 (turbidity of yeast suspension) [1, 4]: 88
T96 (turbidity of yeast suspension) [1, 4]: 87
T0 (turbidity of yeast suspension) [1, 4]: 88
T18 − T0 (change in turbidity) [1, 5]: 13
T48 − T0 (change in turbidity) [1, 5]: 2
T72 − T0 (change in turbidity) [1, 5]: 7
T96 − T0 (change in turbidity) [1, 5]: 1
T18 (turbidity of yeast suspension) [1, 6]: 244
T48 (turbidity of yeast suspension) [1, 6]: 233
T72 (turbidity of yeast suspension) [1, 6]: 238
T96 (turbidity of yeast suspension) [1, 6]: 232
T0 (turbidity of yeast suspension) [1, 6]: 231

O=C([O-])CC(O)(CC(=O)[O-])C(=O)[O-].[Ag+].[Ag+].[Ag+] [Example 1, silver citrate]
Turbidity (NTU) Time 1 Hr ([1]; Table 1, 1 hour at 30° C.): 59.6 NTU
Turbidity (NTU) T 18 hours ([1]; Table 1, 18 hours): 890 NTU
Turbidity (NTU) T 24 hours ([1]; Table 1, 24 hours): 932 NTU
Turbidity (NTU) T 96 Hours ([1]; Table 1, 96 hours): 995 NTU
Turbidity (NTU) Time zero ([1]; Table 1, time zero): 44.5 NTU
Change in Turbidity from T0 (delta NTU) Time 1 Hr ([1]; Table 1A, 1 hour minus time zero): 15.1 delta NTU
Change in Turbidity from T0 (delta NTU) T 18 hours ([1]; Table 1A, 18 hours minus time zero): 845.5 delta NTU
Change in Turbidity from T0 (delta NTU) T 24 hours ([1]; Table 1A, 24 hours minus time zero): 887.5 delta NTU
Change in Turbidity from T0 (delta NTU) T 96 Hours ([1]; Table 1A, 96 hours minus time zero): 950.5 delta NTU

O=C([O-])CC(O)(CC(=O)[O-])C(=O)[O-].O=C([O-])CC(O)(CC(=O)[O-])C(=O)[O-].[Zn+2].[Zn+2].[Zn+2] [Example 7, zinc citrate]
Change in Turbidity from T0 (delta NTU) T 96 Hours [1]: 1007.2 delta NTU
Change in Turbidity from T0 (delta NTU) T 18 hours [1]: 948.2 delta NTU
Change in Turbidity from T0 (delta NTU) T 24 hours [1]: 949.2 delta NTU
Change in Turbidity from T0 (delta NTU) Time 1 Hr [1]: 20.7 delta NTU
Turbidity (NTU) T 96 Hours [1]: 1051 NTU
Turbidity (NTU) T 18 hours [1]: 992 NTU
Turbidity (NTU) T 24 hours [1]: 993 NTU
Turbidity (NTU) Time 1 Hr [1]: 64.5 NTU
Turbidity (NTU) Time zero [1]: 43.8 NTU

CCCCCCCCCCCCOS(=O)(=O)[O-].[Na+] [Example 45]
Turbidity (NTU) OD (To) ([1]; time zero, sulfate): 43 NTU
Turbidity (NTU) OD (T1 hr) ([1]; sulfate): 47 NTU
Turbidity (NTU) OD (T18) ([1]; 18 hours, sulfate): 675 NTU
Turbidity (NTU) OD (T24) ([1]; 24 hours, sulfate): 728 NTU
Turbidity (NTU) OD (T48) ([1]; sulfate): 758 NTU
Change in Turbidity from T0 (delta NTU) OD (T1 hr) [1, 7]: 4 delta NTU
Change in Turbidity from T0 (delta NTU) OD (T18) [1, 8]: 632 delta NTU
Change in Turbidity from T0 (delta NTU) OD (T24) [1, 9]: 685 delta NTU
Change in Turbidity from T0 (delta NTU) OD (T48) ([1]; sulfate): 715 delta NTU

CCCCCCCCCCCCOS(=O)(=O)[O-].[Na+] [Example 46]
Turbidity (NTU) OD (To) ([1]; time zero, sulfate): 37 NTU
Turbidity (NTU) OD (T1 hr) ([1]; sulfate): 42 NTU
Turbidity (NTU) OD (T18) ([1]; 18 hours, sulfate): 495 NTU
Turbidity (NTU) OD (T24) ([1]; 24 hours, sulfate): 610 NTU
Turbidity (NTU) OD (T48) ([1]; sulfate): 605 NTU
Change in Turbidity from T0 (delta NTU) OD (T1 hr) [1, 7]: 5 delta NTU
Change in Turbidity from T0 (delta NTU) OD (T18) [1, 8]: 458 delta NTU
Change in Turbidity from T0 (delta NTU) OD (T24) [1, 9]: 573 delta NTU
Change in Turbidity from T0 (delta NTU) OD (T48) ([1]; sulfate): 568 delta NTU

O=C(O)CC(O)(CC(=O)O)C(=O)O [Example 49, citric acid]
Turbidity (NTU) OD (To) ([1]; time zero): 42 NTU
Turbidity (NTU) OD (T1 hr) [1]: 46 NTU
Turbidity (NTU) OD (T18) ([1]; 18 hours): 835 NTU
Turbidity (NTU) OD (T24) ([1]; 24 hours): 920 NTU
Turbidity (NTU) OD (T48) [1]: 878 NTU
Change in Turbidity from T0 (delta NTU) OD (T1 hr) ([1]; 1 hour minus time zero): 4 delta NTU
Change in Turbidity from T0 (delta NTU) OD (T18) ([1]; 18 hours minus time zero): 793 delta NTU
Change in Turbidity from T0 (delta NTU) OD (T24) ([1]; 24 hours minus time zero): 878 delta NTU
Change in Turbidity from T0 (delta NTU) OD (T48) [1]: 836 delta NTU

O=C(O)CC(O)(CC(=O)O)C(=O)O [Example 50, citric acid]
Turbidity (NTU) OD (To) ([1]; time zero): 38 NTU
Turbidity (NTU) OD (T1 hr) [1]: 44 NTU
Turbidity (NTU) OD (T18) ([1]; 18 hours): 780 NTU
Turbidity (NTU) OD (T24) ([1]; 24 hours): 864 NTU
Turbidity (NTU) OD (T48) [1]: 852 NTU
Change in Turbidity from T0 (delta NTU) OD (T1 hr) ([1]; 1 hour minus time zero): 6 delta NTU
Change in Turbidity from T0 (delta NTU) OD (T18) ([1]; 18 hours minus time zero): 742 delta NTU
Change in Turbidity from T0 (delta NTU) OD (T24) ([1]; 24 hours minus time zero): 826 delta NTU
Change in Turbidity from T0 (delta NTU) OD (T48) [1]: 814 delta NTU

[Cu+2].[OH-].[OH-] [copper hydroxide]
shoot blight incidence, in words [2]: greatly reduced
canker, in words [2]: appeared to prevent canker

[H]/N=C(/N)N[C@H]1[C@H](O)[C@@H](O)[C@H](O[C@@H]2O[C@@H](C)[C@](O)(C=O)[C@H]2O[C@@H]2O[C@@H](CO)[C@H](O)[C@@H](O)[C@@H]2NC)[C@@H](N/C(N)=N\[H])[C@@H]1O [streptomycin]
shoot blight incidence, in words [2]: greatly reduced
canker, in words [2]: appeared to prevent canker

copper citrate [Example 13]
Change in Turbidity from T0 (delta NTU) T 96 Hours [1]: 1054.4 delta NTU
Change in Turbidity from T0 (delta NTU) T 18 hours [1]: 894.4 delta NTU
Change in Turbidity from T0 (delta NTU) T 24 hours [1]: 975.4 delta NTU
Change in Turbidity from T0 (delta NTU) Time 1 Hr [1]: 22.4 delta NTU
Turbidity (NTU) T 96 Hours [1]: 1100 NTU
Turbidity (NTU) T 18 hours [1]: 940 NTU
Turbidity (NTU) T 24 hours [1]: 1021 NTU
Turbidity (NTU) Time 1 Hr [1]: 68 NTU
Turbidity (NTU) Time zero [1]: 45.6 NTU
